In one assay the target is u-PA (Homo sapiens, UniProt P00749). In words: ID50 on homogeneous enzyme. The assay is classed as biochemical.
The target of a further assay is t-PA (Homo sapiens, UniProt P00750). In words: ID50 on homogeneous enzyme. The assay is classed as biochemical.
In assay [1] the target is T1, Gelatinase B (Homo sapiens, UniProt P14780). In words: ID50 on homogeneous enzyme. In kind it is biochemical.
Target sequence in this assay (P14780 107-707): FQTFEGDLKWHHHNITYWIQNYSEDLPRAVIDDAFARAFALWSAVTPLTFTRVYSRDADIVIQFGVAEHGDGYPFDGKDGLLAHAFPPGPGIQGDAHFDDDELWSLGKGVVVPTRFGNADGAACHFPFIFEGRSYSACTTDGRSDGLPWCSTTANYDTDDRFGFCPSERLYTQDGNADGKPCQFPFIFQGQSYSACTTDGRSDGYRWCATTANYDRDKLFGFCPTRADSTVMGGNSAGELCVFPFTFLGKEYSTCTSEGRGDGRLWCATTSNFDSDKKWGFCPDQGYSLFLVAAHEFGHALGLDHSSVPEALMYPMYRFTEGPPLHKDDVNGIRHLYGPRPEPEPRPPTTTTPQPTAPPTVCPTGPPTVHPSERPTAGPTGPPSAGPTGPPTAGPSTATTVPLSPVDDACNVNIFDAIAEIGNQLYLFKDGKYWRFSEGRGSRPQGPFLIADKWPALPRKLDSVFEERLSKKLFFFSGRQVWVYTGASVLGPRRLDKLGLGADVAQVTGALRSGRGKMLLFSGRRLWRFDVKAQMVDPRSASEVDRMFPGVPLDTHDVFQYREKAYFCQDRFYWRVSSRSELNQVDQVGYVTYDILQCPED
For another assay, the target named is T2, Gelatinase A (Homo sapiens, UniProt P08253).
T2 construct: from tissue; host or cells: cerebrospinal fluid of patients with multiple sclerosis or optic neuritis
T2 sequence (P08253 110-660): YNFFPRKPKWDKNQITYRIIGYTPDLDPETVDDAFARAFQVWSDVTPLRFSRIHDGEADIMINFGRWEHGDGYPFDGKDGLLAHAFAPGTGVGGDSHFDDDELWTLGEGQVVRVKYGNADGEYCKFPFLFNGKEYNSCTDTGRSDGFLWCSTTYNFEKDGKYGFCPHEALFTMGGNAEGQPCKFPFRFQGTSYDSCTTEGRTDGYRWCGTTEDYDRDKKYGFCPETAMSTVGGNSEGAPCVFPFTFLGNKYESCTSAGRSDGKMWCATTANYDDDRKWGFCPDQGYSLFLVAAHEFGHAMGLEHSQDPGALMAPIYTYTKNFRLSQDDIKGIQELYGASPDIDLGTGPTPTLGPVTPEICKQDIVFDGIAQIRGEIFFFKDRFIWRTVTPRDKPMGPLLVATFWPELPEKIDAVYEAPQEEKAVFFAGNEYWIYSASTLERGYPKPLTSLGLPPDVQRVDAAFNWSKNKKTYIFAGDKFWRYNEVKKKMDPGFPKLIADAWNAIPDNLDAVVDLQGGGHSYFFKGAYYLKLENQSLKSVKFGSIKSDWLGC
In words: zymography of cerebrospinal fluid of MS / optic neuritis patients with inhibitor. Conditions: CSF of MS patients, increasing concentrations. In kind it is biochemical. The procedure:
(§1) Quantitative zymography was performed as described (7,8). Briefly, 40 µl of loading buffer was added to 40 µl of each sample and applied on 7.5% polyacrylamide gels which had been co-polymerised with 0.1% (w/v) gelatin. Stacking gels contained 5% polyacrylamide. The gels were run at 4°C for 16h at 90V. The gels were then incubated in washing buffer (50 mM Tris-HCl pH 7.5, 10mM CaCl2, O.O2% (W/V) NaN3, 2.5% (v/v) Triton X-100) at room temperature, 2x20 min to remove sodium dodecyl sulfate and overnight in developing buffer (50 mM Tris-HCl pH 7.5, 10mM CaCl2, O.O2% (w/v) NaN3, 1% (v/v) Triton X-100) at 37°C. […] The sites of gelatinase activity appeared as unstained bands on a blue background and were quantified by computerised image analysis through scanning densitometry with a PDI scanner (Pharmacia, Belgium) and the PDI software package. […]
(§2) Similar results were obtained when pure preparations of gelatinase B were tested or when gelatinase B was measured in the presence of D-penicillamine in body fluids or cell supernatants.
(§3) Figure 13. […] Gelatinase A (---) and B(_) activities in the CSF were measured by zymography in the absence or the presence of increasing concentrations of D-penicillamine. The scanning indices for each patient are calculated at the residual activity in the presence of inhibitor versus the activity without inhibitor. […]

For assay [2], the system named is human monocytic cell line THP-1. In words: gelatinase B protein (zymography) and mRNA (northern blot) production in THP-1 cultures. In kind it is cell-based. Conditions: THP-1, LPS 1µg/ml, RA 100nM or untreated; D-penicillamine 50 µg/ml; 16 h. The procedure: Figure 14. […] Cultures of the human monocytic cell line THP-1 were stimulated with lipopolysaccharide (LPS, 1µg/ml), retinoic acid (RA, 100nM) or left untreated (CO) in the presence or absence of D-penicillamine (DPEN, 50 µg/ml). After 16 h total RNA was extracted and gelatinase B mRNA was measured by northern blot analysis with a human probe (41) (a). Gelatinase B protein in the cell culture fluids was assayed by zymographic analysis on gelatin substrate gels (b).

Another assay relates to chronic relapsing EAE. In words: chronic relapsing EAE in Biozzi AB/H mice. As to conditions: 750 µg three times weekly from day 22 onwards. In kind it is in vivo.
Assay [3] has as its system hyperacute experimental allergic encephalomyelitis (EAE). The experiment in a line: acute (hyperacute) EAE in SJL mice. Conditions: intraperitoneal, equivalent of 27 to 375 µg per mouse daily.
Description: In both hind paws 50µl of this emulsion was injected on day 0. On day 0 and 2, 50µl B.pertussis (200x10^9 bacteria/ml) were injected intraveneously. […] The control group received injections with 0.9% NaCl, used as excipiens. The animals were daily monitored and the disease and mortality were scored.).
For assay [4], the target named is T1, Gelatinase B. The experiment in a line: zymography of cerebrospinal fluid of MS / optic neuritis patients with inhibitor. Further details: from tissue; host or cells: cerebrospinal fluid of patients with multiple sclerosis or optic neuritis. The assay is classed as biochemical. Conditions: CSF of MS patients, increasing concentrations. The procedure:
as §1, §2, §3
Target sequence in this assay (P14780 94-707): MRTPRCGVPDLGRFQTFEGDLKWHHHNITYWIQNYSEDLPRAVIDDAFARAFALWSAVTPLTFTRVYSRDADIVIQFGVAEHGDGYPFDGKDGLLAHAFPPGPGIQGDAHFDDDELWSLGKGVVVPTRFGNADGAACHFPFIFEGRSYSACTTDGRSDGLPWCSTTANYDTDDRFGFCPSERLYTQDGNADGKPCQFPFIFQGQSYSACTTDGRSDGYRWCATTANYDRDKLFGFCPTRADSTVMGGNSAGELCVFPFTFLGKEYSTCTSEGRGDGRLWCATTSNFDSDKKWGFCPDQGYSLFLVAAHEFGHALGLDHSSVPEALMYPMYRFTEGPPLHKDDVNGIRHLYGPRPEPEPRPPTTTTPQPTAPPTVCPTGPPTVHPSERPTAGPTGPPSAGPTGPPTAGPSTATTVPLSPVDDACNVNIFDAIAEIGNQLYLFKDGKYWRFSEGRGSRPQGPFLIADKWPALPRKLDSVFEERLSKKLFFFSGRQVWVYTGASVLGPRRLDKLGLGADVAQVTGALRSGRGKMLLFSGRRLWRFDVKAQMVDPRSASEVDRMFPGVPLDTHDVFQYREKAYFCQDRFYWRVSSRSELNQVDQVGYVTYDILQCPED

Assay [5] addresses T3, gelatinase B from neutrophils (Homo sapiens, UniProt P14780). The experiment in a line: gelatinase (inhibitor) microtiter plate assay with biotinylated gelatin. The assay is classed as biochemical. Further details: endogenous in cells; host or cells: human neutrophils stimulated with lipopolysaccharide; conditioned medium. As to conditions: qualitative statements. The procedure:
The measurement of gelatinase activity was based on the detection of non-degraded biotinylated gelatin with a streptavidin-peroxidase conjugate. This test is based on the biotin-avidin method described by Sorbi et al. (25) but modified to a one plate assay (schematically represented in Fig. 1.). Gelatin (1mg/ml) was dissolved in 0.1 M sodium bicarbonate pH 8.3 by heating to 40°C. Biotin-N-hydroxysuccinimide ester was dissolved in dimethylsulfoxide (Me2SO) and was added to the gelatin in a 15-fold molar excess. The mixture was allowed to react overnight at 4°C and the biotinylated gelatin was then dialyzed against phosphate buffered saline (PBS). Neutrophil granulocyte (Neu) medium was collected from human neutrophils after stimulation with lipopolysaccharide (1µg/ml) overnight at 37°C in Minimal Essential Medium. Cells were removed by 10 min centrifugation at 1000 g. Purified gelatinase was obtained by one-step affinity chromatography of neutrophil medium on a gelatin-sepharose column as described (8).
Modified flat bottom 96-well ELISA plates were coated overnight with 0.5 µg/ml avidin in distilled water. The plates were then blocked with 0.3% bovine serum albumin (BSA, Sigma) in PBS for 1 hour at 37°C. Biotinylated gelatin was diluted to 50 µg/ml and 100µl was added to the avidin-coated wells. After incubation for one hour at 20°C, the plate was rinsed with PBS. Medium containing the secreted gelatinases from human neutrophils (dilution range 1/3-1/3^11) and the inhibitors were diluted in incubation buffer (50 mM Tris-HCl pH 7.5, 10 mM CaCl2, 0.02% (W/V) NaN3, 1% (V/V) Triton X-100) and 100 µl of each were mixed. 190 µl of the mixture was added to the gelatin-coated plates and allowed to digest the gelatin overnight at 37°C. The plates were then washed with PBS and each well was incubated with 100 µl peroxidase-conjugated-streptavidin at a 1:2000 dilution for 1 hour at 37°C. After rinsing the plate, the ABTS substrate was added (0.5 mg/ml solution containing 0.1 M citric acid, 0.2 M Na2HPO4, pH 4.3, 0.07 µl/ml 30% H2O2) and the optical density was read at 405 nm after 10 min. incubation at room temperature. Additional information on published test systems used here for comparison.
Gelatin is biotinylated and bound to avidin-coated microtiter plates. By addition of gelatinases the number of free biotin groups decreases and proportionally less streptavidin-peroxidase is bound to the residual substrate. Bound streptavidin-peroxidase activity is measured spectrophotometrically by reaction of peroxide with ABTS. Inhibition of gelatinase is obtained by the addition of inhibitor to a known amount of gelatinase prior to application to the plates. The peroxidase activity increases proportionally with the inhibitory activity.
Plates were first coated with 10µg/ml avidin and 50µg/ml biotinylated gelatin (theoretically saturating the avidin binding sites). As the sensitivity of the assay is dependent on the detection of the minimal amount of degraded biotinylated gelatin, we investigated wether decreasing the amount of biotin-gelatin (50 µg/ml-23 ng/ml) bound to the avidin-coated (10µg/ml) plate increased the sensitivity of the assay. […] Thus it was verified whether a decrease in the avidin coating could make the assay more sensitive (Fig. 2). […] In all further examples plates were coated with 0.5 µg/ml avidin and 50 µg/ml gelatin-biotin.
The titration curves of gelatinase inhibition were always related to a blanc curve and this for enzyme concentrations within the slope of the curve (vertical dotted lines Fig. 3). The decrease in enzyme activity to which the inhibitor-incubated sample corresponded was defined as the inhibition factor (IF).

Assay [6] concerns the target T3, gelatinase B from neutrophils. The experiment in a line: zymography inhibition assay, inhibitor in developing buffer. Conditions: qualitative statements. In kind it is biochemical. Further details: The 92 kDa neutrophil gelatinase is indicated with an arrowhead; endogenous in cells; host or cells: human neutrophils; purified from conditioned medium on gelatin-Sepharose.
Description: Quantitative zymography was performed as described (7,8). Briefly, 40 µl of loading buffer was added to 40 µl of each sample and applied on 7.5% polyacrylamide gels which had been co-polymerised with 0.1% (w/v) gelatin. Stacking gels contained 5% polyacrylamide. The gels were run at 4°C for 16h at 90V. The gels were then incubated in washing buffer (50 mM Tris-HCl pH 7.5, 10mM CaCl2, O.O2% (W/V) NaN3, 2.5% (v/v) Triton X-100) at room temperature, 2x20 min to remove sodium dodecyl sulfate and overnight in developing buffer (50 mM Tris-HCl pH 7.5, 10mM CaCl2, O.O2% (w/v) NaN3, 1% (v/v) Triton X-100) at 37°C. The gels were then stained in Coomassie brilliant blue R-250 and destained in methanol/acetic acid. The sites of gelatinase activity appeared as unstained bands on a blue background and were quantified by computerised image analysis through scanning densitometry with a PDI scanner (Pharmacia, Belgium) and the PDI software package. For inhibition experiments, the inhibitors were dissolved in the developing buffer at the appropriate concentration. […] The enzyme activity was developed by staining of the substrate with Coomassie blue and quantification of the substrate digestion by scanning densitometry. […] The enzyme activity was developed by staining of the substrate with Coomassie blue and quantification of the substrate digestion by scanning densitometry. […]

pIC50: −log10 of the molar value. “Also recorded” adds a separate entry of the source.

T3 sequence (P14780 94-707): as above
Chain of t-PA (P00750 36-562, species assumed): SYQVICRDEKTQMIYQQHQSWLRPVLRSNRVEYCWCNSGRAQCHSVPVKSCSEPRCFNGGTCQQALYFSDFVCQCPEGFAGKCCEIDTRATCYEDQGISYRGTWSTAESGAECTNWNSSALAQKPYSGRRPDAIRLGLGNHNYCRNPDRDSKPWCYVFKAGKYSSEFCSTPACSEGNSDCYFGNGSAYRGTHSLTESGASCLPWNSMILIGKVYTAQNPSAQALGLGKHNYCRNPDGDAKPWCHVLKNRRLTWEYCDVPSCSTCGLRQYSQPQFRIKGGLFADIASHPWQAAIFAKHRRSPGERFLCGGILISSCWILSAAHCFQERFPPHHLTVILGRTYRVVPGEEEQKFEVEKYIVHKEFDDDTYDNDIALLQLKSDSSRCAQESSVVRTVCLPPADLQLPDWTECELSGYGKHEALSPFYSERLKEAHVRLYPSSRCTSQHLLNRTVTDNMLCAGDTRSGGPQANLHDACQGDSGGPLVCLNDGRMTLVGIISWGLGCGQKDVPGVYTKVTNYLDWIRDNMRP

`CC(C)(S)[C@@H](N)C(=O)O` [D-penicillamine]: the pIC50 against u-PA was 4.03; on t-PA, 3.92; against Gelatinase B [1] it was 4.70. Moreover, the “inhibition of Gelatinase A in cerebrospinal fluid (in words)” value against Gelatinase A is on record as “inhibited in a dose-dependent way”. For the same compound, the “spontaneous and induced levels of gelatinase B mRNA” value in [2] is on record as “remained constant”. The “spontaneous and induced levels of gelatinase B protein” value in [2] was “remained constant”. Moreover, the “disease recurrencies in chronic relapsing EAE” value in the assay on chronic relapsing EAE is given as “abrogated the exacerbations; also recorded: abrogated the disease recurrencies”. The “development of disease symptoms in acute EAE” value in [3] is reported as “complete blockage; also recorded: inhibits in a dose-dependent way the development of disease symptoms”. Further, the “inhibition of Gelatinase B in cerebrospinal fluid (in words)” value against Gelatinase B [4] was “inhibited in a dose-dependent way”. Also, the “gelatinase B inhibitory activity in the plate assay (in words)” value in assay [5] is on record as “inhibitor of gelatinase B”. For the same compound, in assay [6], the “inhibition of gelatinase B on zymography (in words)” value is recorded as “inhibitor of gelatinase B”.
